The results in this text go back to patent US10351587B2, “Method of making and using 7α, 11β-dimethyl-17β-hydroxyestr-4-en-3-one 17-undecanoate” (The United States of America, as represented by the …, priority 2000, dated 2019).

Entries after “also recorded” stand apart in the source; their conditions may differ.

Data set [1] relates to castrate Sprague-Dawley rats. As to the kind of experiment: Hershberger test, subcutaneous administration for seven days (ventral prostate weight). In kind it is in vivo. The settings on record: ventral prostate weight assay following subcutaneous administration; alcohol of G = 1.0 (assigned); value is for the free alcohol of the listed ester. As to the method: (§1) Immature (about 21-day-old) Sprague-Dawley rats were orchidectomized under anesthesia, and randomly assignee to groups of ten animals for each dose level of the active undergoing testing. Each active was dissolved in 10% ethanol/sesame oil and administered by gavage (oral) or subcutaneous injection each day for seven days beginning on the date of the orchidectomy. The animals were sacrificed 24 hours after the last dose, and the ventral prostate and seminal vesicles were excised, cleaned of fat and connective tissue, blotted on moist filter paper and weighed to the nearest 0.1 mg. Regression analysis was performed by conventional methods using a PROPHET data management system. Ventral prostate weight was used as the endpoint because it is the sensitive organ to androgenic stimulation.
as §1, with “by” for “by gavage (oral) or”, “mg. See, e.g., Hershberger, L. et al, Myotrophic Activity of 19-nortestosterone And Other Steroids Determined By Modified Levator And Muscle Method, Proc. Soc. Exptl. Biol. Med. 83 175-180 (1953).” for “mg.”, “system. See, e.g., Bliss, C., The Statistics of Bioassay (Academic Press, New York, 1952); Hollister, C., Nucleic Acids Res. 16 1873-75 (1988).” for “system.”

Data set [2] has as its system castrate Sprague-Dawley rats. As to the kind of experiment: Duration of activity after a single subcutaneous injection (ventral prostate weight over weeks, AUC). The note with it: single subcutaneous injection; for AUC of ventral prostate weight (FIG. 5): 0.6 mg, n=5. In kind it is in vivo. How it is done: as §1, with “was” for “was dissolved in 10% ethanol/sesame oil and”, “by” for “by gavage (oral) or”
Except for testosterone enanthate, each active was formulated in two different carriers: (1) an aqueous suspension and (2) in sesame oil. Testosterone enanthate was formulated using the sesame oil carrier only, because it exists as a liquid at room temperature and could not therefore be formulated as an aqueous suspension.
The carrier used to provide the aqueous suspension was formulated as follows: 1 g benzyl alcohol, 0.5 g sodium carboxylethyl cellulose 50, 0.376 g disodium hydrogen phosphate dihydrate, 1.495 g sodium dihydrogen phosphate dihydrate, with water for injection (WFI) being added to bring volume of the carrier up to 100 ml.
Each formulation was prepared at a concentration of 0.6 mg/0.2 ml.
(§2) Immature (about 21-day-old) Sprague-Dawley rats were orchidectomized under anesthesia, and randomly assignee to groups of 40 or more. Animals received a single subcutaneous injection of 0.6 mg of each ester in 0.2 ml of an aqueous suspending carrier and/or oily carrier (10% ethanol/90% sesame oil or ethyl oleate) on the date of the orchidectomy. In cases where the ester was not solid at room temperature, 10% ethanol/sesame oil or ethyl oleate was used as the carrier. In this example, the carrier used to provide the aqueous suspension was formulated as follows: 1 g benzyl alcohol, 0.5 g sodium carboxylethyl cellulose 50, 0.376 g disodium hydrogen phosphate dihydrate, 1.495 g sodium dihydrogen phosphate dihydrate, with water for injection (WFI) being added to bring volume of the carrier up to 100 ml.
Five animals from each group were sacrificed at weekly or biweekly intervals, and the ventral prostate and seminal vesicles were excised, cleaned of fat and connective tissue, blotted on moist filter paper and weighed to the nearest 0.1 mg.
Ventral prostate weight was used as the endpoint because it is the sensitive organ to androgenic stimulation. Regression analysis was performed by conventional methods using the PROPHET data management system previously identified.
Immature (about 21-day-old) Sprague-Dawley rats were orchidectomized under anesthesia, and randomly assignee to groups of 40 or more. Animals received a single subcutaneous injection of 0.6 mg of the undecanoate in 0.2 ml of an aqueous suspending carrier and/or oily carrier (10% ethanol/90% sesame oil containing 5 mg/ml chlorobutanol as a preservative, or ethyloleate) on the date of the orchidectomy. The enanthate ester was formulated using the 10% ethanol/sesame oil or ethyloleate carrier as a first standard, with the 10% ethanol/sesame oil carrier used as a second standard.
In this example, the carrier used to provide the aqueous suspension was formulated as follows: 1 g benzyl alcohol, 0.5 g sodium carboxylethyl cellulose 50, 0.376 g disodium hydrogen phosphate dihydrate, 1.495 g sodium dihydrogen phosphate dihydrate, with water for injection (WFI) being added to bring volume of the carrier up to 100 ml.

A short description of data set [3]: Serum levels of the free alcohol after a single subcutaneous injection. In kind it is in vivo, Sprague-Dawley rats. The note with it: single subcutaneous injection 0.6 mg in aqueous carrier, 10-week observation period. How it is done:
as §2

As to `CCCC[C@H]1CC[C@H](C(=O)O[C@H]2CC[C@H]3[C@H]4[C@H]([C@@H](C)C[C@]23C)[C@H]2CCC(=O)C=C2C[C@H]4C)CC1` (relative stereo) [CDB-4386A, 7α,11β-Dimethyl-17β-hydroxy-4-estren-3-one 17β-trans-4-n-butylcyclohexane carboxylate], the “Androgenic Potency of Corresponding Alcohol” value in data set [1] was 19.3. In addition, the “Long-term androgenic activity (ventral prostate weight over time), in words” value in data set [2] is “most dramatic increase and maintenance of ventral prostate weight; also recorded: greatest AUC over the 10-week period”. Further, the figures for the “AUC of ventral prostate weight (FIG. 5)” value in data set [2] (ASV (aqueous suspending vehicle)) and in data set [2] (S.O. (sesame oil)) were 1390 and 157, respectively. Besides, the “Serum levels of the free alcohol (7α,11β-dimethyl-19-nortestosterone)” value in data set [3] is listed as “highest levels of the free alcohol”.
